Test results from PubChem BioAssay AID2060605 (Molecular Pharmacology Branch, DTP, NCI, 2025).

System: 947758-054-R-J2-PDC spheroid growth, percent test/control
Assay: Anticancer human tumor 947758-054-R-J2-PDC patient-derived colon adenocarcinoma cell line growth inhibition [CLK]
Conditions: spheroids with HUVEC and MSC; for IC50: curve of first compound; for viability, T/C: stronger effect = lower value
How it was run: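 Patient-derived tumor cells grown as complex spheroids with HUVEC endothelial cells and mesenchymal stem cells, treated with drug combinations. Concentrations descend in half-log steps from near clinical Cmax, or from 10 microM if Cmax unknown.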

[1] = second compound 0.0316 µM, first compound 0.0316 µM
[2] = second compound 0.0316 µM, first compound 0.1 µM
[3] = second compound 0.0316 µM, first compound 0.316 µM
[4] = second compound 0.0316 µM, first compound 1 µM
[5] = second compound 0.0316 µM, first compound 3.16 µM
[6] = second compound 0.0316 µM, first compound 10 µM
[7] = second compound 0.1 µM, first compound 0.0316 µM
[8] = second compound 0.1 µM, first compound 0.1 µM
[9] = second compound 0.1 µM, first compound 0.316 µM
[10] = second compound 0.1 µM, first compound 1 µM
[11] = second compound 0.1 µM, first compound 3.16 µM
[12] = second compound 0.1 µM, first compound 10 µM
[13] = second compound 0.316 µM, first compound 0.0316 µM
[14] = second compound 0.316 µM, first compound 0.1 µM
[15] = second compound 0.316 µM, first compound 0.316 µM
[16] = second compound 0.316 µM, first compound 1 µM
[17] = second compound 0.316 µM, first compound 3.16 µM
[18] = second compound 0.316 µM, first compound 10 µM
[19] = second compound 1 µM, first compound 0.0316 µM
[20] = second compound 1 µM, first compound 0.1 µM
[21] = second compound 1 µM, first compound 0.316 µM
[22] = second compound 1 µM, first compound 1 µM
[23] = second compound 1 µM, first compound 3.16 µM
[24] = second compound 1 µM, first compound 10 µM
[25] = second compound 3.16 µM, first compound 0.0316 µM
[26] = second compound 3.16 µM, first compound 0.1 µM
[27] = second compound 3.16 µM, first compound 0.316 µM
[28] = second compound 3.16 µM, first compound 1 µM
[29] = second compound 3.16 µM, first compound 3.16 µM
[30] = second compound 3.16 µM, first compound 10 µM
[31] = second compound 10 µM, first compound 0.0316 µM
[32] = second compound 10 µM, first compound 0.1 µM
[33] = second compound 10 µM, first compound 0.316 µM
[34] = second compound 10 µM, first compound 1 µM
[35] = second compound 10 µM, first compound 3.16 µM
[36] = second compound 10 µM, first compound 10 µM
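Further: spheroids exposed to compounds for one week before readout.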
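Wherever viability, T/C is given: 100% = DMSO vehicle control wells.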

Structure (SMILES): CC1(C)CCC(CN2CCN(c3ccc(C(=O)NS(=O)(=O)c4ccc(NCC5CCOCC5)c([N+](=O)[O-])c4)c(Oc4cnc5[nH]ccc5c4)c3)CC2)=C(c2ccc(Cl)cc2)C1 + CN1CCN(c2cc(C(=O)Nc3cc4cc(-c5cnn(C)c5)ccc4cn3)ccn2)CC1
- IC50 (second compound 0.0316 µM): 5540 nM
- IC50 (second compound 0.1 µM): 6730 nM
- IC50 (second compound 0.316 µM): < 31.6 nM
- IC50 (second compound 1 µM): < 31.6 nM
- IC50 (second compound 3.16 µM): < 31.6 nM
- IC50 (second compound 10 µM): < 31.6 nM
- viability, T/C [1]: 106%
- viability, T/C [2]: 142%
- viability, T/C [3]: 113%
- viability, T/C [4]: 86.5%
- viability, T/C [5]: 101%
- viability, T/C [6]: 6.09%
- viability, T/C [7]: 174%
- viability, T/C [8]: 220%
- viability, T/C [9]: 181%
- viability, T/C [10]: 178%
- viability, T/C [11]: 139%
- viability, T/C [12]: 2.94%
- viability, T/C [13]: 4.83%
- viability, T/C [14]: 6.64%
- viability, T/C [15]: 4.64%
- viability, T/C [16]: 5.62%
- viability, T/C [17]: 4.76%
- viability, T/C [18]: 2.09%
- viability, T/C [19]: 0.18%
- viability, T/C [20]: 2.13%
- viability, T/C [21]: 1.78%
- viability, T/C [22]: 0.17%
- viability, T/C [23]: 1.22%
- viability, T/C [24]: 0.59%
- viability, T/C [25]: 0.97%
- viability, T/C [26]: 1.19%
- viability, T/C [27]: 0.31%
- viability, T/C [28]: 0.2%
- viability, T/C [29]: 0.16%
- viability, T/C [30]: 3.63%
- viability, T/C [31]: 0.86%
- viability, T/C [32]: 3.93%
- viability, T/C [33]: 1.09%
- viability, T/C [34]: 0.43%
- viability, T/C [35]: 0.52%
- viability, T/C [36]: 0.32%

Structure (SMILES): Cn1ncnc1[C@H]1c2n[nH]c(=O)c3cc(F)cc(c23)N[C@@H]1c1ccc(F)cc1 + CNC(=O)c1ccc(Nc2nc(OC3CCCC3)c3c(-c4ccc5nc(C)oc5c4)c[nH]c3n2)c(OC)c1
- IC50 (second compound 0.0316 µM): > 100 nM
- IC50 (second compound 0.1 µM): > 100 nM
- IC50 (second compound 0.316 µM): 36.7 nM
- IC50 (second compound 1 µM): < 0.316 nM
- IC50 (second compound 3.16 µM): < 0.316 nM
- IC50 (second compound 10 µM): < 0.316 nM
- viability, T/C (second compound 0.0316 µM, first compound 0.000316 µM): 78.7%
- viability, T/C (second compound 0.0316 µM, first compound 0.001 µM): 102%
- viability, T/C (second compound 0.0316 µM, first compound 0.00316 µM): 84.3%
- viability, T/C (second compound 0.0316 µM, first compound 0.01 µM): 96.9%
- viability, T/C [1]: 90.4%
- viability, T/C [2]: 82.6%
- viability, T/C (second compound 0.1 µM, first compound 0.000316 µM): 96.5%
- viability, T/C (second compound 0.1 µM, first compound 0.001 µM): 88.6%
- viability, T/C (second compound 0.1 µM, first compound 0.00316 µM): 81.3%
- viability, T/C (second compound 0.1 µM, first compound 0.01 µM): 90.8%
- viability, T/C [7]: 84.8%
- viability, T/C [8]: 58.9%
- viability, T/C (second compound 0.316 µM, first compound 0.000316 µM): 69.7%
- viability, T/C (second compound 0.316 µM, first compound 0.001 µM): 65%
- viability, T/C (second compound 0.316 µM, first compound 0.00316 µM): 70.4%
- viability, T/C (second compound 0.316 µM, first compound 0.01 µM): 77.9%
- viability, T/C [13]: 51.4%
- viability, T/C [14]: 40.5%
- viability, T/C (second compound 1 µM, first compound 0.000316 µM): 46.1%
- viability, T/C (second compound 1 µM, first compound 0.001 µM): 45.1%
- viability, T/C (second compound 1 µM, first compound 0.00316 µM): 42.3%
- viability, T/C (second compound 1 µM, first compound 0.01 µM): 49.3%
- viability, T/C [19]: 46%
- viability, T/C [20]: 24.6%
- viability, T/C (second compound 3.16 µM, first compound 0.000316 µM): 38.9%
- viability, T/C (second compound 3.16 µM, first compound 0.001 µM): 31.4%
- viability, T/C (second compound 3.16 µM, first compound 0.00316 µM): 38.4%
- viability, T/C (second compound 3.16 µM, first compound 0.01 µM): 42.6%
- viability, T/C [25]: 38.6%
- viability, T/C [26]: 28.7%
- viability, T/C (second compound 10 µM, first compound 0.000316 µM): 33.4%
- viability, T/C (second compound 10 µM, first compound 0.001 µM): 31.8%
- viability, T/C (second compound 10 µM, first compound 0.00316 µM): 32.9%
- viability, T/C (second compound 10 µM, first compound 0.01 µM): 48%
- viability, T/C [31]: 28.9%
- viability, T/C [32]: 26.8%

Structure (SMILES): O=C(c1cc(Cc2n[nH]c(=O)c3ccccc23)ccc1F)N1CCN(C(=O)C2CC2)CC1 + CN1CCN(c2cc(C(=O)Nc3cc4cc(-c5cnn(C)c5)ccc4cn3)ccn2)CC1
- IC50 (second compound 0.0316 µM): > 10000 nM
- IC50 (second compound 0.1 µM): > 10000 nM
- IC50 (second compound 0.316 µM): < 31.6 nM
- IC50 (second compound 1 µM): < 31.6 nM
- IC50 (second compound 3.16 µM): < 31.6 nM
- IC50 (second compound 10 µM): < 31.6 nM
- viability, T/C [1]: 137%
- viability, T/C [2]: 108%
- viability, T/C [3]: 127%
- viability, T/C [4]: 111%
- viability, T/C [5]: 139%
- viability, T/C [6]: 222%
- viability, T/C [7]: 173%
- viability, T/C [8]: 187%
- viability, T/C [9]: 179%
- viability, T/C [10]: 180%
- viability, T/C [11]: 206%
- viability, T/C [12]: 119%
- viability, T/C [13]: 3.05%
- viability, T/C [14]: 3.52%
- viability, T/C [15]: 3.12%
- viability, T/C [16]: 2.9%
- viability, T/C [17]: 2.97%
- viability, T/C [18]: 2.81%
- viability, T/C [19]: 0.13%
- viability, T/C [20]: 0.13%
- viability, T/C [21]: 0.15%
- viability, T/C [22]: 0.09%
- viability, T/C [23]: 0.15%
- viability, T/C [24]: 0.18%
- viability, T/C [25]: 0.14%
- viability, T/C [26]: 0.24%
- viability, T/C [27]: 0.22%
- viability, T/C [28]: 0.18%
- viability, T/C [29]: 0.73%
- viability, T/C [30]: 0.27%
- viability, T/C [31]: 0.31%
- viability, T/C [32]: 0.36%
- viability, T/C [33]: 0.95%
- viability, T/C [34]: 0.29%
- viability, T/C [35]: 0.44%
- viability, T/C [36]: 0.35%

Structure (SMILES): O=c1[nH]cc(F)c(=O)[nH]1 + CNC(=O)c1ccc(Nc2nc(OC3CCCC3)c3c(-c4ccc5nc(C)oc5c4)c[nH]c3n2)c(OC)c1
- IC50 (second compound 0.0316 µM): 969 nM
- IC50 (second compound 0.1 µM): 892 nM
- IC50 (second compound 0.316 µM): 557 nM
- IC50 (second compound 1 µM): < 31.6 nM
- IC50 (second compound 3.16 µM): < 31.6 nM
- IC50 (second compound 10 µM): < 31.6 nM
- viability, T/C [1]: 97.2%
- viability, T/C [2]: 85.4%
- viability, T/C [3]: 84.2%
- viability, T/C [4]: 47.2%
- viability, T/C [5]: 38.4%
- viability, T/C [6]: 28%
- viability, T/C [7]: 81.3%
- viability, T/C [8]: 79.1%
- viability, T/C [9]: 88%
- viability, T/C [10]: 46.3%
- viability, T/C [11]: 31%
- viability, T/C [12]: 22%
- viability, T/C [13]: 79.8%
- viability, T/C [14]: 79.4%
- viability, T/C [15]: 51.4%
- viability, T/C [16]: 44.3%
- viability, T/C [17]: 27.7%
- viability, T/C [18]: 16.7%
- viability, T/C [19]: 47.4%
- viability, T/C [20]: 40.3%
- viability, T/C [21]: 52.8%
- viability, T/C [22]: 31.2%
- viability, T/C [23]: 20.6%
- viability, T/C [24]: 13.2%
- viability, T/C [25]: 42.6%
- viability, T/C [26]: 25%
- viability, T/C [27]: 38.6%
- viability, T/C [28]: 26.1%
- viability, T/C [29]: 16.8%
- viability, T/C [30]: 11.8%
- viability, T/C [31]: 36.2%
- viability, T/C [32]: 24.6%
- viability, T/C [33]: 35.9%
- viability, T/C [34]: 22.1%
- viability, T/C [35]: 12.2%
- viability, T/C [36]: 13.2%
